Like-named read-outs stand apart in the source and are kept apart here.
How the values were obtained:
Assay in all cases: biochemical
Parameters in all cases: Reaction Biology 371-kinase panel at Km ATP, per cent enzyme activity relative to DMSO, single dose in duplicate
Conditions in all cases: duplicate measurements, Km ATP
ALK5/TGFBR1 = ALK5/TGFBR1 (Homo sapiens, UniProt P36897)
In short: (§1)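 In vitro selectivity panel: 371 kinases, inhibitor at 300 nM; % activity vs DMSO; IC50 by variable-slope sigmoidal fit, bottom = 0.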

AURORA C = target: T1, AURORA C (Homo sapiens, UniProt Q9UQB9)
T1 construct: gene AURKC
T1 sequence (Q9UQB9 whole entry): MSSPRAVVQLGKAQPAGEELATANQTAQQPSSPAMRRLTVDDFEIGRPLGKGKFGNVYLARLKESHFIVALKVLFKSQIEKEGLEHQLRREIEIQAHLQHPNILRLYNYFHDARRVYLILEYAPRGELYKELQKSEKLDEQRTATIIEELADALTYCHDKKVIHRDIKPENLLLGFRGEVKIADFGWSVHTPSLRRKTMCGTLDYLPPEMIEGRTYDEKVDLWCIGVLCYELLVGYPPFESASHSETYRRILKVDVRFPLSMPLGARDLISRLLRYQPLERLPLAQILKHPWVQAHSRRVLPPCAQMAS
In short: as §1

BRSK1 = BRSK1 (Homo sapiens, UniProt Q8TDC3)
In short: as §1

CAMK1a = target: T2, CAMK1a (Homo sapiens, UniProt Q14012)
T2 construct: gene CAMK1
T2 sequence (Q14012 whole entry): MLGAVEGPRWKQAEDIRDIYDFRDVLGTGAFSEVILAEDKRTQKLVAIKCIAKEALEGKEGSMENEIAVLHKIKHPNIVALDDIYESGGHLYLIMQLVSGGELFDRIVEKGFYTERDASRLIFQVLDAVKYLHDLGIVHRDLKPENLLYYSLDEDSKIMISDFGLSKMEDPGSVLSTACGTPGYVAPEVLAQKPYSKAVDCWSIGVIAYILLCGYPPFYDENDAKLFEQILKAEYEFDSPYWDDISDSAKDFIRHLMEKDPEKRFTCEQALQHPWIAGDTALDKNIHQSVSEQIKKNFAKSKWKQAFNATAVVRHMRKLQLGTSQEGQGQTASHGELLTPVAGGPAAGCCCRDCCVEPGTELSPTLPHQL
In short: as §1

CDK4/cyclin D3 = CDK4/cyclin D3 (Homo sapiens, UniProt P11802)
In short: as §1

CK2a = target: T3, CK2a (Homo sapiens, UniProt P68400)
T3 construct: gene CSNK2A1
In short: as §1

CLK4 = CLK4 (Homo sapiens, UniProt Q9HAZ1)
In short: as §1

EPHA1 = EPHA1 (Homo sapiens, UniProt P21709)
In short: as §1

ERN1/IRE1 = ERN1/IRE1 (Homo sapiens, UniProt O75460)
In short: as §1

FGFR4 = FGFR4 (Homo sapiens, UniProt P22455)
In short: as §1

GRK7 = GRK7 (Homo sapiens, UniProt Q8WTQ7)
Sequence of GRK7 (Q8WTQ7 whole entry): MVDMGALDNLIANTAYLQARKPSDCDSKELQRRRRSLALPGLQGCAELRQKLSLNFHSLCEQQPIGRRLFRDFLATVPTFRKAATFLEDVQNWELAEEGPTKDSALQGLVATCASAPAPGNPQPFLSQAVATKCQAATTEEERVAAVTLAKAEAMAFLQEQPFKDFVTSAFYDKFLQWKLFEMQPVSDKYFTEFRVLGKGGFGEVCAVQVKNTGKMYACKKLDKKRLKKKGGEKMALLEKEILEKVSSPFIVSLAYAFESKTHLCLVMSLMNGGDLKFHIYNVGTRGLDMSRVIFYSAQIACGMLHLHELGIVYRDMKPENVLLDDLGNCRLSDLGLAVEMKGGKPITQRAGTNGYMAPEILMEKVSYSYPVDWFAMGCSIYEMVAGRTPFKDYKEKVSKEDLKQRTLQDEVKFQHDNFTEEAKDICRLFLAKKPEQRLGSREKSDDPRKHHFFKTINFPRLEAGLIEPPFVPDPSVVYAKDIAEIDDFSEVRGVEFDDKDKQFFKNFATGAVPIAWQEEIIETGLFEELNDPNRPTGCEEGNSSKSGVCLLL
In short: as §1

MEK2 = target: T4, MEK2 (Homo sapiens, UniProt P36507)
T4 construct: gene MAP2K2
T4 sequence (P36507 whole entry): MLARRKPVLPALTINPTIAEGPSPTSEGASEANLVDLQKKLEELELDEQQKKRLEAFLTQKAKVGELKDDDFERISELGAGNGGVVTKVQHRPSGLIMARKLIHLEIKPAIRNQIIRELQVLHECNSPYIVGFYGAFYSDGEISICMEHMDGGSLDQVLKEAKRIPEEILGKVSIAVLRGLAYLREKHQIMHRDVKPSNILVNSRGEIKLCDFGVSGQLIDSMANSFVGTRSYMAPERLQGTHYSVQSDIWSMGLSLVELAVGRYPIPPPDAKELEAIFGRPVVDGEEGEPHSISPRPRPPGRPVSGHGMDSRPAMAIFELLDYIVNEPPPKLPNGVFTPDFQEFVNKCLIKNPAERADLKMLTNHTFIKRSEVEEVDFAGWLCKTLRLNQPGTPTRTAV
In short: as §1

PAK1 = PAK1 (Homo sapiens, UniProt Q13153)
Sequence of PAK1 (Q13153 whole entry): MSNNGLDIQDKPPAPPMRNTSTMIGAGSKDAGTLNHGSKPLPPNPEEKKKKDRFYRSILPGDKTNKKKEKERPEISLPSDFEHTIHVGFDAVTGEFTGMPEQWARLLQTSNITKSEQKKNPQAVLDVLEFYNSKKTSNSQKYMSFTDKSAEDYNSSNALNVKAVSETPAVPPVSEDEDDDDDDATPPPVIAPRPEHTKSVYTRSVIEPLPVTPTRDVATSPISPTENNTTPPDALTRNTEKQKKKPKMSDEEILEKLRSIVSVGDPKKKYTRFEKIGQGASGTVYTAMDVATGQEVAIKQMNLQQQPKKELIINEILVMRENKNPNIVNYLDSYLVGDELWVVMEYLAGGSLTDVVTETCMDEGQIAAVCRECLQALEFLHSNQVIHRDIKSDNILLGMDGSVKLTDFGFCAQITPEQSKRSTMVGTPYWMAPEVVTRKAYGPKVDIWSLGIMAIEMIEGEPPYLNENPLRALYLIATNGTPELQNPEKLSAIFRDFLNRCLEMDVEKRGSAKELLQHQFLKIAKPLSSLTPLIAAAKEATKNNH
In short: as §1

PKCtheta = target: T5, PKCtheta (Homo sapiens, UniProt Q04759)
T5 construct: gene PRKCQ
T5 sequence (Q04759 whole entry): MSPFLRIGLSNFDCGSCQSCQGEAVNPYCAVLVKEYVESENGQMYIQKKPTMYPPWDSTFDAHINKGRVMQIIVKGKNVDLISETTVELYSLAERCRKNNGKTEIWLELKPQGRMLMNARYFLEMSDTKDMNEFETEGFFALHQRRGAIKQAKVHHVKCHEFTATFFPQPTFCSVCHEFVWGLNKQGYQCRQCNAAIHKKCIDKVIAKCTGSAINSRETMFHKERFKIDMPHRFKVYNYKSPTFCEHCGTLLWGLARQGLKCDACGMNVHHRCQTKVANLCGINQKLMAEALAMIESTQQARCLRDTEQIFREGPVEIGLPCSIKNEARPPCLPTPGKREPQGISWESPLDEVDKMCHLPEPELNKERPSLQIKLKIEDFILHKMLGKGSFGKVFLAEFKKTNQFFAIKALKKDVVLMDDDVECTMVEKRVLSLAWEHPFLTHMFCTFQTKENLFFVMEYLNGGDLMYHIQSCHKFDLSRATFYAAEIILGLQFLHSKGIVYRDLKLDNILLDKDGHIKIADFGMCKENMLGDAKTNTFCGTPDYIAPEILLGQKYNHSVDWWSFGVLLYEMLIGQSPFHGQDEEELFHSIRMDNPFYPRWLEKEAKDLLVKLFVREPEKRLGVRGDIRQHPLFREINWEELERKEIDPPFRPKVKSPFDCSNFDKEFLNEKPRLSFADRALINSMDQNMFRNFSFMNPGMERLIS
In short: as §1

PKG1a = target: T6, PKG1a (Homo sapiens, UniProt Q13976)
T6 construct: gene PRKG1; isoform alpha
T6 sequence (Q13976 whole entry, canonical isoform): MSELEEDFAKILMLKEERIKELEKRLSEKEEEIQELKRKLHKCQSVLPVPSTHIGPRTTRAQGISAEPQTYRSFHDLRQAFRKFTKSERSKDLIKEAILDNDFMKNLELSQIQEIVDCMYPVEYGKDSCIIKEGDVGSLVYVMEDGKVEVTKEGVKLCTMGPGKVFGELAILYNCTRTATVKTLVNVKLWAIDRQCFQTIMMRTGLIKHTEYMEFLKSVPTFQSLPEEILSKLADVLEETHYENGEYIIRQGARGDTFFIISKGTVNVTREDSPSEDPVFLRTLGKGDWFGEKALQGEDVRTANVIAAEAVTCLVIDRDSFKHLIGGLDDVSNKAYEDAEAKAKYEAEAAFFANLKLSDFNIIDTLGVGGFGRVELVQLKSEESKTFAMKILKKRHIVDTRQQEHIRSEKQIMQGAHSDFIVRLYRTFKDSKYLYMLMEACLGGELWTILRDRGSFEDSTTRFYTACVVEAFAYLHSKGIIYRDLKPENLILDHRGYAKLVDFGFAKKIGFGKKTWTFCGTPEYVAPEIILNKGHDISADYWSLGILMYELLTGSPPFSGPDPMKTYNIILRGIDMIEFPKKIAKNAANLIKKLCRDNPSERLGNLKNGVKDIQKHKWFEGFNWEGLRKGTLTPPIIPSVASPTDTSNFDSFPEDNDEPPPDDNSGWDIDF
In short: as §1

SLK/STK2 = SLK/STK2 (Homo sapiens, UniProt Q9H2G2)
In short: as §1

STK38/NDR1 = STK38/NDR1 (Homo sapiens, UniProt Q15208)
Sequence of STK38/NDR1 (Q15208 whole entry): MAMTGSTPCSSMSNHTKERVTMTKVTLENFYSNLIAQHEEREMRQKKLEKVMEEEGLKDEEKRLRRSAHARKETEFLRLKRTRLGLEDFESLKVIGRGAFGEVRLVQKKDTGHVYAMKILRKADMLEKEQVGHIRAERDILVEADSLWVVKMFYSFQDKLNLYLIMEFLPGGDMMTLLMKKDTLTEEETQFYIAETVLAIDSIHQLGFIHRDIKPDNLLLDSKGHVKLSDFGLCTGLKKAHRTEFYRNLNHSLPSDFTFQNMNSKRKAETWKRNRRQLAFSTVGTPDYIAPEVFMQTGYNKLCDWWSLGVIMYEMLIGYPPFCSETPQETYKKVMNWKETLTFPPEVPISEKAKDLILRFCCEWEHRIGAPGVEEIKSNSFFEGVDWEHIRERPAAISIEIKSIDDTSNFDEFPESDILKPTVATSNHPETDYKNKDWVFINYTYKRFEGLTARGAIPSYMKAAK
In short: as §1

TYK2 = TYK2 (Homo sapiens, UniProt P29597)
In short: as §1

ULK3 = ULK3 (Homo sapiens, UniProt Q6PHR2)
Sequence of ULK3 (Q6PHR2 whole entry): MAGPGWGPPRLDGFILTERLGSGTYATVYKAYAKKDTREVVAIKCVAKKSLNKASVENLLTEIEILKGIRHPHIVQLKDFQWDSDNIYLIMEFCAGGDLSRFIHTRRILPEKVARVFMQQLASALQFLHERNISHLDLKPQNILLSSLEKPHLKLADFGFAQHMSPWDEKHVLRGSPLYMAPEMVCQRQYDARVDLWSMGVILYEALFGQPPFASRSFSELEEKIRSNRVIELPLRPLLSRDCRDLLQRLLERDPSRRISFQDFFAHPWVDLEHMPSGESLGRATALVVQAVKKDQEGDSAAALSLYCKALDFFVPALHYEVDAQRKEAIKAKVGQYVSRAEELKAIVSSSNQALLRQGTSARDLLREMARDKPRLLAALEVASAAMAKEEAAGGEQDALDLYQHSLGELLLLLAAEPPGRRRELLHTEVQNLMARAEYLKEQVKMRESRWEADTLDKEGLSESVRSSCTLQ
In short: as §1

c-MET = c-MET (Homo sapiens, UniProt P08581)
In short: as §1

[1] = read-out: % Enzyme Activity (relative to DMSO controls) / TP-0005801 (0.3µM) / Data 1
[2] = read-out: % Enzyme Activity (relative to DMSO controls) / TP-0005801 (0.3µM) / Data 2

Sequence of ALK5/TGFBR1 (P36897 whole entry): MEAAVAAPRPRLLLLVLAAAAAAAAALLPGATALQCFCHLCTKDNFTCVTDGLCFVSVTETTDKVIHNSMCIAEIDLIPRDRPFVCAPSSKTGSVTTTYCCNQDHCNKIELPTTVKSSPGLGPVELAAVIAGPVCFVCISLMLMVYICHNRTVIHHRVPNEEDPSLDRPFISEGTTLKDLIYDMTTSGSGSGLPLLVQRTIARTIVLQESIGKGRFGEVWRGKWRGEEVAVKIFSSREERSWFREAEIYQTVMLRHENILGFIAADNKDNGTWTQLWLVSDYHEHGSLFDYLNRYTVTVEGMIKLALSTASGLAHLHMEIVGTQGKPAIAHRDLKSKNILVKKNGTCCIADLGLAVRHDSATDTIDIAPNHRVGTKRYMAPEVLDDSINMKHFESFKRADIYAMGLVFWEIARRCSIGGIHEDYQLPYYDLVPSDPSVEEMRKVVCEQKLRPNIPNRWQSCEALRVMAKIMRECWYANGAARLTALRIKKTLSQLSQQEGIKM

`COc1cc(N2CCN(C)CC2)c(C)cc1Nc1ncc(Br)c(Nc2cccnc2N(C)C)n1` [TP-5801] showed a remaining activity at 0.3 µM (ALK5/TGFBR1; [1]) of 88.1%, a remaining activity at 0.3 µM (ALK5/TGFBR1; [2]) of 88% and a remaining activity at 0.3 µM (AURORA C; [1]) of 97%. It also gave a remaining activity at 0.3 µM (AURORA C; [2]) of 92.9%, a remaining activity at 0.3 µM (BRSK1; [1]) of 101% and a remaining activity at 0.3 µM (BRSK1; [2]) of 95.8%. It also gave a remaining activity at 0.3 µM (CAMK1a; [1]) of 92.6%, a remaining activity at 0.3 µM (CAMK1a; [2]) of 91.5% and a remaining activity at 0.3 µM (CDK4/cyclin D3; [1]) of 91.7%. For the same compound, the remaining activity at 0.3 µM (CDK4/cyclin D3; [2]) was 90.8%, the remaining activity at 0.3 µM (CK2a; [1]) was 42.4% and the remaining activity at 0.3 µM (CK2a; [2]) was 41.8%. For the same compound, the remaining activity at 0.3 µM (CLK4; [1]) was 30.4%, the remaining activity at 0.3 µM (CLK4; [2]) was 30.2% and the remaining activity at 0.3 µM (EPHA1; [1]) was 96.8%. It also gave a remaining activity at 0.3 µM (EPHA1; [2]) of 96.5%, a remaining activity at 0.3 µM (ERN1/IRE1; [1]) of 83% and a remaining activity at 0.3 µM (ERN1/IRE1; [2]) of 82.7%. For the same compound, the remaining activity at 0.3 µM (FGFR4; [1]) was 79.9%, the remaining activity at 0.3 µM (FGFR4; [2]) was 77.6% and the remaining activity at 0.3 µM (GRK7; [1]) was 105%. It also gave a remaining activity at 0.3 µM (GRK7; [2]) of 97.5%, a remaining activity at 0.3 µM (MEK2; [1]) of 87.6% and a remaining activity at 0.3 µM (MEK2; [2]) of 87.4%. The remaining activity at 0.3 µM (PAK1; [1]) was 91.5%, the remaining activity at 0.3 µM (PAK1; [2]) was 86.4% and the remaining activity at 0.3 µM (PKCtheta; [1]) was 91.3%. For the same compound, the remaining activity at 0.3 µM (PKCtheta; [2]) was 90.3%, the remaining activity at 0.3 µM (PKG1a; [1]) was 87.6% and the remaining activity at 0.3 µM (PKG1a; [2]) was 85.6%. It also gave a remaining activity at 0.3 µM (SLK/STK2; [1]) of 55.6%, a remaining activity at 0.3 µM (SLK/STK2; [2]) of 48.5% and a remaining activity at 0.3 µM (STK38/NDR1; [1]) of 38.8%. The remaining activity at 0.3 µM (STK38/NDR1; [2]) was 38.7%, the remaining activity at 0.3 µM (TYK2; [1]) was 100% and the remaining activity at 0.3 µM (TYK2; [2]) was 96.7%. It also gave a remaining activity at 0.3 µM (ULK3; [1]) of 43.8%, a remaining activity at 0.3 µM (ULK3; [2]) of 40.1% and a remaining activity at 0.3 µM (c-MET; [1]) of 104%. For the same compound, the remaining activity at 0.3 µM (c-MET; [2]) was 102%.

Reference: article PMC8429728, “TNK1 is a ubiquitin-binding and 14-3-3-regulated kinase that can be targeted to block tumor growth” (Nature Communications, 2021)
